Literature values as cited in US20110302824A1, “PROCESS FOR LIQUEFYING A CELLULOSIC MATERIAL” (SHELL OIL COMPANY, priority 2010, published 2011).

Conditions: polarity of the (co-)solvent of the liquefaction medium; octanol-water

Compound	Solvent Log P
CC1CCC(=O)O1 (centres unmarked) [w/gVL, gamma-valerolactone]	−0.6
CCCCCCCCCCCC [w/C12, dodecane]	6.1
